Data set [1] relates to Escherichia coli. The data set is described as follows: Antibacterial activity against Escherichia coli then incubated at 37 degC for 24 hrs by broth dilution assay. It is filed as functional. In general terms: Broth dilution looks for growth in wells or tubes with falling amounts of substance.
The nature of data set [2]: Cytotoxicity against human MRC5 cells assessed as reduction in cell viability incubated for 24 hrs by MTS assay. The format is cell-based. Conditions: read-out: LC50. In general terms: Tetrazolium assays rely on reduction of a dye to a coloured formazan, in cell work by metabolically active cells.
A short description of data set [3]: Cytotoxicity against human Jurkat cells assessed as reduction in cell viability incubated for 24 hrs by MTS assay. It is filed as cell-based. Conditions: read-out: LC50.
Data set [4] relates to Erythrocyte. The data set is described as follows: (§1) Induction of hemolysis in Sprague-Dawley rat erythrocytes incubated at 37 degC for 60 mins by spectrophotometry. The format is cell-based. Conditions: erythrocyte, 1 h.
A short description of data set [5]: as §1. Conditions: Sprague-Dawley, erythrocytes, read-out: HD50. It is filed as cell-based, Erythrocyte.
Data set [6] can be described thus: Induction of hemolysis in Sprague-Dawley rat erythrocytes at 200 uM incubated at 37 degC for 60 mins by spectrophotometry. The format is cell-based, Erythrocyte. Conditions: read-out: Activity.
The test system of data set [7] is Bacillus subtilis. Briefly: Antibacterial activity against Bacillus subtilis then incubated at 37 degC for 24 hrs by broth dilution assay. The format is functional.
The nature of data set [8]: Cytotoxicity against human LNCAP cells assessed as reduction in cell viability incubated for 24 hrs by MTS assay. It is filed as cell-based. Conditions: read-out: LC50.

In brackets after ≈: the same amount, converted by molar mass. Non-standard residues stand in square brackets, D forms with d. Residues, ends and D or L forms follow the SMILES beside them. Nspe = C[C@H](NCC(=O)O)c1ccccc1; Nlys = NCCCCNCC(=O)O

Data on eight compounds can be found in ChEMBL document CHEMBL4177724, “Effect of side chain hydrophobicity and cationic charge on antimicrobial activity and cytotoxicity of helical peptoids” (Bioorg Med Chem Lett, 2018).

As usually defined, the MIC is the lowest concentration that inhibits growth of the organism. Read a low MIC as a more susceptible organism.

For the compound `C[C@@H](c1ccccc1)N(CC(=O)N(CCCCN)CC(=O)N(CC(=O)N(CC(=O)N(CCCCN)CC(=O)N(CC(=O)N(CC(=O)N(CCCCN)CC(N)=O)[C@@H](C)c1ccccc1)[C@@H](C)c1ccccc1)[C@@H](C)c1ccccc1)[C@@H](C)c1ccccc1)C(=O)CN(C(=O)CNCCCCN)[C@@H](C)c1ccccc1` (H-[Nlys][Nspe][Nspe][Nlys][Nspe][Nspe][Nlys][Nspe][Nspe][Nlys]-NH2), the MIC came to 1.6 µM (≈ 2.4 µg/mL) in data set [1] and 0.8 µM (≈ 1.2 µg/mL) in data set [7]. Also, the CC50 at 24 h in data set [2] worked out at 80.5 µM; in data set [3], 28.9 µM. Besides, the HD10 in data set [4] is greater than 200 µM. Further, in data set [5], the HC50 at 1 h was greater than 200 µM. For the same compound, the hemolysis at 1 h, 200 µM in data set [6] came to 9.8%.
In the case of `C[C@H](c1ccccc1)N(CC(N)=O)C(=O)CN(C(=O)CN(CCCCN)C(=O)CN(C(=O)CN(C(=O)CN(CCCCN)C(=O)CN(C(=O)CN(C(=O)CNCCCCN)[C@H](C)c1ccccc1)[C@@H](C)c1ccccc1)[C@H](C)c1ccccc1)[C@@H](C)c1ccccc1)[C@H](C)c1ccccc1` (stereo in doubt), the results for the minimal inhibitory concentration (MIC) in data set [1] and in data set [7] were 3.1 µM (≈ 4.24 µg/mL) and 1.6 µM (≈ 2.19 µg/mL), respectively. The CC50 at 24 h in data set [2] is 40 µM; in data set [8], 27 µM; in data set [3], 18.6 µM. In data set [4], this compound had an HD10 of 119.5 µM. Moreover, the HC50 at 1 h in data set [5] was greater than 200 µM. Further, the hemolysis at 1 h, 200 µM in data set [6] was found to be 38.7%.
Consider `C[C@@H](c1ccccc1)N(CC(=O)N(CCCCN)CC(=O)N(CC(=O)N(CC(=O)N(CCCCN)CC(=O)N(CC(=O)N(CC(=O)N(CCCCN)CC(=O)N(CC(=O)N(CC(=O)N(CCCCN)CC(N)=O)[C@@H](C)c1ccccc1)[C@@H](C)c1ccccc1)[C@@H](C)c1ccccc1)[C@@H](C)c1ccccc1)[C@@H](C)c1ccccc1)[C@@H](C)c1ccccc1)C(=O)CN(C(=O)CNCCCCN)[C@@H](C)c1ccccc1` (H-[Nlys][Nspe][Nspe][Nlys][Nspe][Nspe][Nlys][Nspe][Nspe][Nlys][Nspe][Nspe][Nlys]-NH2), for which the minimal inhibitory concentration (MIC) in data set [1] was 1.6 µM (≈ 3.12 µg/mL); in data set [7], 0.4 µM (≈ 0.779 µg/mL). Also, the CC50 at 24 h was 10 µM in data set [2] and 5.04 µM in data set [3]. The same compound gave an HD10 in data set [4] of 19.5 µM. The HC50 at 1 h in data set [5] was greater than 200 µM. The hemolysis at 1 h, 200 µM in data set [6] turned out to be 48.1%.
With `Cc1ccc([C@H](C)N(CC(N)=O)C(=O)CN(C(=O)CN(CCCCN)C(=O)CN(C(=O)CN(C(=O)CN(CCCCN)C(=O)CN(C(=O)CN(C(=O)CN(CCCCN)C(=O)CN(C(=O)CN(C(=O)CNCCCCN)[C@@H](C)c2ccc(C)cc2)[C@@H](C)c2ccc(C)cc2)[C@@H](C)c2ccc(C)cc2)[C@@H](C)c2ccc(C)cc2)[C@@H](C)c2ccc(C)cc2)[C@@H](C)c2ccc(C)cc2)[C@@H](C)c2ccc(C)cc2)cc1`, the MIC in data set [1] is greater than 6.1 µM; in data set [7] it was 0.8 µM (≈ 1.55 µg/mL). Moreover, the results for the CC50 at 24 h in data set [2] and in data set [8] were 8 µM and 12 µM, respectively. The compound further showed an HD10 in data set [4] of less than 6.25 µM. Further, the HC50 at 1 h in data set [5] was determined as 8.3 µM. Also, the hemolysis at 1 h, 200 µM in data set [6] stood at 100%.
Regarding `C[C@@H](c1ccccc1)N(CC(N)=O)C(=O)CN(C(=O)CN(CCCCN)C(=O)CN(C(=O)CN(C(=O)CN(CCCCN)C(=O)CN(C(=O)CN(C(=O)CN(CCCCN)C(=O)CN(C(=O)CN(C(=O)CNCCCCN)[C@@H](C)c1ccccc1)[C@@H](C)c1ccccc1)[C@@H](C)c1ccccc1)[C@@H](C)c1ccccc1)[C@@H](C)c1ccccc1)[C@@H](C)c1ccccc1)[C@@H](C)c1ccccc1` (H-[Nlys][Nspe][Nspe][Nlys][Nspe][Nspe][Nlys][Nspe][Nspe][Nlys][Nspe][Nspe]-NH2), the minimal inhibitory concentration (MIC) was 1.6 µM (≈ 2.91 µg/mL) in data set [1] and 0.8 µM (≈ 1.46 µg/mL) in data set [7]. The CC50 at 24 h in data set [2] stood at 8 µM; in data set [8], 5 µM; in data set [3] it was 2.21 µM. The same compound gave an HD10 in data set [4] of 9.1 µM. For the same compound, the HC50 at 1 h in data set [5] came out at 63.4 µM. In addition, the hemolysis at 1 h, 200 µM in data set [6] turned out to be 100%.
For `C[C@@H](c1ccc(Cl)cc1)N(CC(N)=O)C(=O)CN(C(=O)CN(CCCCN)C(=O)CN(C(=O)CN(C(=O)CN(CCCCN)C(=O)CN(C(=O)CN(C(=O)CN(CCCCN)C(=O)CN(C(=O)CN(C(=O)CNCCCCN)[C@@H](C)c1ccc(Cl)cc1)[C@@H](C)c1ccc(Cl)cc1)[C@@H](C)c1ccc(Cl)cc1)[C@@H](C)c1ccc(Cl)cc1)[C@@H](C)c1ccc(Cl)cc1)[C@@H](C)c1ccc(Cl)cc1)[C@@H](C)c1ccc(Cl)cc1`, the figures for the minimum inhibitory concentration (MIC) in data set [1] and in data set [7] were greater than 6.1 µM and 6.1 µM (≈ 12.8 µg/mL), respectively. Moreover, the CC50 at 24 h was determined as 3 µM in data set [2], 10 µM in data set [8] and 1.58 µM in data set [3]. Moreover, the HD10 in data set [4] is less than 6.25 µM. Also, in data set [5], the HC50 at 1 h was 10.4 µM. Also, the hemolysis at 1 h, 200 µM in data set [6] is 100%.
Turning to `C[C@@H](c1ccc(F)cc1)N(CC(N)=O)C(=O)CN(C(=O)CN(CCCCN)C(=O)CN(C(=O)CN(C(=O)CN(CCCCN)C(=O)CN(C(=O)CN(C(=O)CN(CCCCN)C(=O)CN(C(=O)CN(C(=O)CNCCCCN)[C@@H](C)c1ccc(F)cc1)[C@@H](C)c1ccc(F)cc1)[C@@H](C)c1ccc(F)cc1)[C@@H](C)c1ccc(F)cc1)[C@@H](C)c1ccc(F)cc1)[C@@H](C)c1ccc(F)cc1)[C@@H](C)c1ccc(F)cc1`, the MIC came to 3.1 µM (≈ 6.09 µg/mL) in data set [1] and 0.4 µM (≈ 0.785 µg/mL) in data set [7]. The CC50 at 24 h in data set [2] amounted to 9.5 µM; in data set [8], 9.5 µM; in data set [3], 2.47 µM. Also, the HD10 in data set [4] is less than 6.25 µM. Moreover, in data set [5], the HC50 at 1 h was less than 6.25 µM. Besides, in data set [6], the hemolysis at 1 h, 200 µM came out at 100%.
With `CC[C@H](C)[C@H](NC(=O)CN)C(=O)NCC(=O)N[C@@H](CCCCN)C(=O)N[C@@H](Cc1ccccc1)C(=O)N[C@@H](CC(C)C)C(=O)N[C@@H](CCCCN)C(=O)N[C@@H](CCCCN)C(=O)N[C@@H](C)C(=O)N[C@@H](CCCCN)C(=O)N[C@@H](CCCCN)C(=O)N[C@@H](Cc1ccccc1)C(=O)NCC(=O)N[C@@H](CCCCN)C(=O)N[C@@H](C)C(=O)N[C@@H](Cc1ccccc1)C(=O)N[C@H](C(=O)N[C@@H](CCCCN)C(=O)N[C@H](C(=O)N[C@@H](CC(C)C)C(=O)N[C@@H](CCCCN)C(=O)N[C@@H](CCCCN)C(N)=O)[C@@H](C)CC)C(C)C` [PEXIGANAN] (H-GIGKFLKKAKKFGKAFVKILKK-NH2), the results for the MIC in data set [1] and in data set [7] were 0.8 µM (≈ 1.98 µg/mL) and 0.4 µM (≈ 0.991 µg/mL), respectively. In addition, the CC50 at 24 h in data set [2] was 21.2 µM. In data set [4], this compound returned an HD10 of 113.4 µM. Moreover, the HC50 at 1 h in data set [5] was greater than 200 µM. For the same compound, the hemolysis at 1 h, 200 µM in data set [6] was determined as 21.5%.
